Test results as given in patent publication US11634425B2, “Pharmaceutical compounds” (priority 2019, dated 2023).

test system: RSV A2; experiment: RSV plaque reduction assay; format: cell-based, respiratory syncytial virus (RSV); details: human respiratory syncytial virus, HepG2, Hep-G2 cells, mean of at least two experiments
Summary of the method: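 RSV A2 at 100 PFU/well was premixed with eight compound dilutions and added to confluent Hep-G2 monolayers for 2 h at 37 °C. Cells were then kept 2 days under a DMEM/2% FBS/0.8% CMC overlay containing compound. Immunostained plaques were counted relative to virus controls, and EC50 came from 4-parameter fits, averaged over at least two experiments.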

Structure (SMILES) | EC50 [nM]
CCc1ccc(-c2nn3cccnc3c2C(=O)N[C@H]2N=C(c3ccccc3)c3cccc(F)c3NC2=O)cn1 [Example 55] | 45
Cc1ccc(-c2nn3cccnc3c2C(=O)N[C@H]2N=C(c3ccccc3)c3cccc(F)c3NC2=O)cn1 [Example 50, N-[(3S)-9-fluoro-2-oxo-5-phenyl-1,3-dihydro-1,4-benzodiazepin-3-yl]-2-(6-methylpyridin-3-yl)pyrazolo[1,5-a]pyrimidine-3-carboxamide] | 99
O=C(N[C@H]1N=C(c2ccccc2)c2ccccc2NC1=O)c1c(-c2ccccc2F)nn2cccnc12 [Example 2, 2-(2-Fluorophenyl)-N-[(3S)-2-oxo-5-phenyl-1,3-dihydro-1,4-benzodiazepin-3-yl]pyrazolo[1,5-a]pyrimidine-3-carboxamide] | 39
